PMC11284792, “Backbone-Determined Antiarrhythmic Structure–Activity Relationships for a Mirror Image, Oligomeric Depsipeptide Natural Product” (Journal of Medicinal Chemistry, 2024)
“Also recorded” adds a separate entry of the source. Read-outs that look alike come from different tables or passages of the source.

Columns and labels:
[1] = amide bond, 24-membered ring, 3 steps
RyR2 = target: T1, RyR2 (Mus musculus, UniProt E9Q401); test: Calcium spark assay in saponin-permeabilized ventricular cardiomyocytes; assay type: cell-based, mouse (C57BL/6J); details: for Normalized Calcium Leak: CSV supplement, Series 2-5; for Normalized Calcium Leak / Calcium spark Amplitude (normalized to vehicle) / Calcium spark Leak (normalized to vehicle) / Calcium spark Mass (normalized to vehicle) / Calcium spark Frequency (normalized to vehicle): 25 μM drug, normalized to vehicle (DMSO), mean ± standard deviation; for Calcium spark Amplitude (normalized to vehicle) / Calcium spark Leak (normalized to vehicle) / Calcium spark Mass (normalized to vehicle) / Calcium spark Frequency (normalized to vehicle): Supplement Tables 2-3; for Calcium spark Amplitude (normalized to vehicle) / Calcium spark Leak (normalized to vehicle) / Calcium spark Mass (normalized to vehicle): permeabilized murine cardiomyocytes; for Calcium spark Frequency (normalized to vehicle): permeabilized murine left ventricular myocytes, 15 min incubation; for Inhibition of RyR2-mediated calcium sparks (in words): spark frequency after 15 min incubation with 25 μM compound, permeabilized myocytes
T1 construct: ventricular cardiomyocytes were isolated from C57Bl/6J mice, adhered to laminin-coated glass bottom culture dishes, permeabilized with saponin; endogenous in cells; host or cells: left ventricular cardiomyocytes freshly isolated from C57BL/6J mice, saponin-permeabilized
Description: With a wide range of ent-verticilide analogs in hand, organized by five series that systematically change the backbone functionality without modifying the alternating methyl and pentyl side chains, we pursued their evaluation in the calcium sparks assay for insight into potential antiarrhythmic activity.[3] Left ventricular myocytes were isolated from C57BL/6J mice and subjected to brief incubation with saponin, which permeabilizes the sarcolemma and enables equivalent access of compounds to RyR2, irrespective of their permeability.[14] Cardiomyocytes were then incubated in an internal solution designed to promote spontaneous RyR2-mediated calcium release events, known as sparks,[34] and the spark frequency was recorded following a 15 min incubation with 25 μM of each compound. Figure 3 summarizes these findings; no inhibition of RyR2 (lack of activity) is reflected as a value of 1 (dotted line). […] In that study, we noted that the 18-membered oligomer was more forgiving. […] Series 4–5 analogs produced nearly flat SAR, with no notable inhibition by any of the analogs.
Figure 3 RyR2-mediated calcium spark frequency in permeabilized left ventricular myocytes incubated with 25 μM drug for 15 min. All data normalized to vehicle (DMSO) condition. […] (A) *P < 0.0001 vs vehicle. N = 29 (2), 102 (5), 105 (5), 108 (5), 119 (4), and 87 cells (mice). Previously reported in Johnston et al. ACS Med. Chem. Lett., 2022, 13(11), 1755–1762. (B) *P < 0.0001 vs vehicle. # P = 0.00041 vs vehicle. N = 38, 46, 54, 50, and 50 cells, respectively, from 2 mice. (C) *P < 0.0001 vs vehicle. # P = 0.034 vs vehicle. N = 79 (4), 58 (3), 79 (4), 80 (5), and 91 (5) cells (mice). (D) P > 0.05 for all groups vs vehicle. N = 66 (4), 42 (2), 37 (2), 38 (2), 43(2), and 37 (2) cells (mice). (E) *P < 0.0001 vs vehicle. N = 66 (4), 85 (5), 93 (5), 100 (5), 89 (5), and 67 (4) cells (mice).
Calcium spark measurements were made, as previously described.[5] Briefly, ventricular cardiomyocytes were isolated from C57Bl/6J mice, adhered to laminin-coated glass bottom culture dishes, permeabilized with saponin, and incubated with an internal solution containing the calcium sensitive dye, Fluo-4. Elementary spark recordings were made using an Olympus inverted microscope equipped with a solid-state diode laser at 488 nm for excitation, 40× silicone objective (1.25 NA), and Hamamatsu CMOS camera for detection. Spark detection analysis was performed using SparkMaster2.[37]
Statistical analysis was carried out in R using a hierarchical clustering model to cluster data by experiment and account for mouse-to-mouse variability.[38] A cutoff value of 0.05 was used as the threshold to reject the null hypothesis. The numbers of cells and replicates (mice) are indicated in the figure legend for each compound.
Johnston et al. Supporting Information […]
of 0.05 was used as the threshold to reject the null hypothesis.
Safety: No unexpected or unusually high safety hazards were encountered.
Biological Experiment Data: Calcium spark parameters
For all series, assay is run with 25 μM solution of drug. Values are normalized to the vehicle (DMSO) condition and reported as mean ± standard deviation. Statistical comparisons were made using a hierarchical clustering model with Bonferroni correction. Adjusted p-values < 0.05 vs vehicle are indicated with an asterisk. Each mouse was an independent experiment, the replicates are listed as n (cells).
Supplement Table 1. Calcium spark parameters from murine cardiomyocytes for ent-verticilide and series 1 analogs.
Supplement Table 2. Calcium spark parameters from murine cardiomyocytes for series 2 analogs.
Supplement Table 3. Calcium spark parameters from murine cardiomyocytes for series 3 analogs. […]
Cardiovasc. Res.

[2] = the molecule shown is the open-chain precursor

T1 sequence (E9Q401 whole entry): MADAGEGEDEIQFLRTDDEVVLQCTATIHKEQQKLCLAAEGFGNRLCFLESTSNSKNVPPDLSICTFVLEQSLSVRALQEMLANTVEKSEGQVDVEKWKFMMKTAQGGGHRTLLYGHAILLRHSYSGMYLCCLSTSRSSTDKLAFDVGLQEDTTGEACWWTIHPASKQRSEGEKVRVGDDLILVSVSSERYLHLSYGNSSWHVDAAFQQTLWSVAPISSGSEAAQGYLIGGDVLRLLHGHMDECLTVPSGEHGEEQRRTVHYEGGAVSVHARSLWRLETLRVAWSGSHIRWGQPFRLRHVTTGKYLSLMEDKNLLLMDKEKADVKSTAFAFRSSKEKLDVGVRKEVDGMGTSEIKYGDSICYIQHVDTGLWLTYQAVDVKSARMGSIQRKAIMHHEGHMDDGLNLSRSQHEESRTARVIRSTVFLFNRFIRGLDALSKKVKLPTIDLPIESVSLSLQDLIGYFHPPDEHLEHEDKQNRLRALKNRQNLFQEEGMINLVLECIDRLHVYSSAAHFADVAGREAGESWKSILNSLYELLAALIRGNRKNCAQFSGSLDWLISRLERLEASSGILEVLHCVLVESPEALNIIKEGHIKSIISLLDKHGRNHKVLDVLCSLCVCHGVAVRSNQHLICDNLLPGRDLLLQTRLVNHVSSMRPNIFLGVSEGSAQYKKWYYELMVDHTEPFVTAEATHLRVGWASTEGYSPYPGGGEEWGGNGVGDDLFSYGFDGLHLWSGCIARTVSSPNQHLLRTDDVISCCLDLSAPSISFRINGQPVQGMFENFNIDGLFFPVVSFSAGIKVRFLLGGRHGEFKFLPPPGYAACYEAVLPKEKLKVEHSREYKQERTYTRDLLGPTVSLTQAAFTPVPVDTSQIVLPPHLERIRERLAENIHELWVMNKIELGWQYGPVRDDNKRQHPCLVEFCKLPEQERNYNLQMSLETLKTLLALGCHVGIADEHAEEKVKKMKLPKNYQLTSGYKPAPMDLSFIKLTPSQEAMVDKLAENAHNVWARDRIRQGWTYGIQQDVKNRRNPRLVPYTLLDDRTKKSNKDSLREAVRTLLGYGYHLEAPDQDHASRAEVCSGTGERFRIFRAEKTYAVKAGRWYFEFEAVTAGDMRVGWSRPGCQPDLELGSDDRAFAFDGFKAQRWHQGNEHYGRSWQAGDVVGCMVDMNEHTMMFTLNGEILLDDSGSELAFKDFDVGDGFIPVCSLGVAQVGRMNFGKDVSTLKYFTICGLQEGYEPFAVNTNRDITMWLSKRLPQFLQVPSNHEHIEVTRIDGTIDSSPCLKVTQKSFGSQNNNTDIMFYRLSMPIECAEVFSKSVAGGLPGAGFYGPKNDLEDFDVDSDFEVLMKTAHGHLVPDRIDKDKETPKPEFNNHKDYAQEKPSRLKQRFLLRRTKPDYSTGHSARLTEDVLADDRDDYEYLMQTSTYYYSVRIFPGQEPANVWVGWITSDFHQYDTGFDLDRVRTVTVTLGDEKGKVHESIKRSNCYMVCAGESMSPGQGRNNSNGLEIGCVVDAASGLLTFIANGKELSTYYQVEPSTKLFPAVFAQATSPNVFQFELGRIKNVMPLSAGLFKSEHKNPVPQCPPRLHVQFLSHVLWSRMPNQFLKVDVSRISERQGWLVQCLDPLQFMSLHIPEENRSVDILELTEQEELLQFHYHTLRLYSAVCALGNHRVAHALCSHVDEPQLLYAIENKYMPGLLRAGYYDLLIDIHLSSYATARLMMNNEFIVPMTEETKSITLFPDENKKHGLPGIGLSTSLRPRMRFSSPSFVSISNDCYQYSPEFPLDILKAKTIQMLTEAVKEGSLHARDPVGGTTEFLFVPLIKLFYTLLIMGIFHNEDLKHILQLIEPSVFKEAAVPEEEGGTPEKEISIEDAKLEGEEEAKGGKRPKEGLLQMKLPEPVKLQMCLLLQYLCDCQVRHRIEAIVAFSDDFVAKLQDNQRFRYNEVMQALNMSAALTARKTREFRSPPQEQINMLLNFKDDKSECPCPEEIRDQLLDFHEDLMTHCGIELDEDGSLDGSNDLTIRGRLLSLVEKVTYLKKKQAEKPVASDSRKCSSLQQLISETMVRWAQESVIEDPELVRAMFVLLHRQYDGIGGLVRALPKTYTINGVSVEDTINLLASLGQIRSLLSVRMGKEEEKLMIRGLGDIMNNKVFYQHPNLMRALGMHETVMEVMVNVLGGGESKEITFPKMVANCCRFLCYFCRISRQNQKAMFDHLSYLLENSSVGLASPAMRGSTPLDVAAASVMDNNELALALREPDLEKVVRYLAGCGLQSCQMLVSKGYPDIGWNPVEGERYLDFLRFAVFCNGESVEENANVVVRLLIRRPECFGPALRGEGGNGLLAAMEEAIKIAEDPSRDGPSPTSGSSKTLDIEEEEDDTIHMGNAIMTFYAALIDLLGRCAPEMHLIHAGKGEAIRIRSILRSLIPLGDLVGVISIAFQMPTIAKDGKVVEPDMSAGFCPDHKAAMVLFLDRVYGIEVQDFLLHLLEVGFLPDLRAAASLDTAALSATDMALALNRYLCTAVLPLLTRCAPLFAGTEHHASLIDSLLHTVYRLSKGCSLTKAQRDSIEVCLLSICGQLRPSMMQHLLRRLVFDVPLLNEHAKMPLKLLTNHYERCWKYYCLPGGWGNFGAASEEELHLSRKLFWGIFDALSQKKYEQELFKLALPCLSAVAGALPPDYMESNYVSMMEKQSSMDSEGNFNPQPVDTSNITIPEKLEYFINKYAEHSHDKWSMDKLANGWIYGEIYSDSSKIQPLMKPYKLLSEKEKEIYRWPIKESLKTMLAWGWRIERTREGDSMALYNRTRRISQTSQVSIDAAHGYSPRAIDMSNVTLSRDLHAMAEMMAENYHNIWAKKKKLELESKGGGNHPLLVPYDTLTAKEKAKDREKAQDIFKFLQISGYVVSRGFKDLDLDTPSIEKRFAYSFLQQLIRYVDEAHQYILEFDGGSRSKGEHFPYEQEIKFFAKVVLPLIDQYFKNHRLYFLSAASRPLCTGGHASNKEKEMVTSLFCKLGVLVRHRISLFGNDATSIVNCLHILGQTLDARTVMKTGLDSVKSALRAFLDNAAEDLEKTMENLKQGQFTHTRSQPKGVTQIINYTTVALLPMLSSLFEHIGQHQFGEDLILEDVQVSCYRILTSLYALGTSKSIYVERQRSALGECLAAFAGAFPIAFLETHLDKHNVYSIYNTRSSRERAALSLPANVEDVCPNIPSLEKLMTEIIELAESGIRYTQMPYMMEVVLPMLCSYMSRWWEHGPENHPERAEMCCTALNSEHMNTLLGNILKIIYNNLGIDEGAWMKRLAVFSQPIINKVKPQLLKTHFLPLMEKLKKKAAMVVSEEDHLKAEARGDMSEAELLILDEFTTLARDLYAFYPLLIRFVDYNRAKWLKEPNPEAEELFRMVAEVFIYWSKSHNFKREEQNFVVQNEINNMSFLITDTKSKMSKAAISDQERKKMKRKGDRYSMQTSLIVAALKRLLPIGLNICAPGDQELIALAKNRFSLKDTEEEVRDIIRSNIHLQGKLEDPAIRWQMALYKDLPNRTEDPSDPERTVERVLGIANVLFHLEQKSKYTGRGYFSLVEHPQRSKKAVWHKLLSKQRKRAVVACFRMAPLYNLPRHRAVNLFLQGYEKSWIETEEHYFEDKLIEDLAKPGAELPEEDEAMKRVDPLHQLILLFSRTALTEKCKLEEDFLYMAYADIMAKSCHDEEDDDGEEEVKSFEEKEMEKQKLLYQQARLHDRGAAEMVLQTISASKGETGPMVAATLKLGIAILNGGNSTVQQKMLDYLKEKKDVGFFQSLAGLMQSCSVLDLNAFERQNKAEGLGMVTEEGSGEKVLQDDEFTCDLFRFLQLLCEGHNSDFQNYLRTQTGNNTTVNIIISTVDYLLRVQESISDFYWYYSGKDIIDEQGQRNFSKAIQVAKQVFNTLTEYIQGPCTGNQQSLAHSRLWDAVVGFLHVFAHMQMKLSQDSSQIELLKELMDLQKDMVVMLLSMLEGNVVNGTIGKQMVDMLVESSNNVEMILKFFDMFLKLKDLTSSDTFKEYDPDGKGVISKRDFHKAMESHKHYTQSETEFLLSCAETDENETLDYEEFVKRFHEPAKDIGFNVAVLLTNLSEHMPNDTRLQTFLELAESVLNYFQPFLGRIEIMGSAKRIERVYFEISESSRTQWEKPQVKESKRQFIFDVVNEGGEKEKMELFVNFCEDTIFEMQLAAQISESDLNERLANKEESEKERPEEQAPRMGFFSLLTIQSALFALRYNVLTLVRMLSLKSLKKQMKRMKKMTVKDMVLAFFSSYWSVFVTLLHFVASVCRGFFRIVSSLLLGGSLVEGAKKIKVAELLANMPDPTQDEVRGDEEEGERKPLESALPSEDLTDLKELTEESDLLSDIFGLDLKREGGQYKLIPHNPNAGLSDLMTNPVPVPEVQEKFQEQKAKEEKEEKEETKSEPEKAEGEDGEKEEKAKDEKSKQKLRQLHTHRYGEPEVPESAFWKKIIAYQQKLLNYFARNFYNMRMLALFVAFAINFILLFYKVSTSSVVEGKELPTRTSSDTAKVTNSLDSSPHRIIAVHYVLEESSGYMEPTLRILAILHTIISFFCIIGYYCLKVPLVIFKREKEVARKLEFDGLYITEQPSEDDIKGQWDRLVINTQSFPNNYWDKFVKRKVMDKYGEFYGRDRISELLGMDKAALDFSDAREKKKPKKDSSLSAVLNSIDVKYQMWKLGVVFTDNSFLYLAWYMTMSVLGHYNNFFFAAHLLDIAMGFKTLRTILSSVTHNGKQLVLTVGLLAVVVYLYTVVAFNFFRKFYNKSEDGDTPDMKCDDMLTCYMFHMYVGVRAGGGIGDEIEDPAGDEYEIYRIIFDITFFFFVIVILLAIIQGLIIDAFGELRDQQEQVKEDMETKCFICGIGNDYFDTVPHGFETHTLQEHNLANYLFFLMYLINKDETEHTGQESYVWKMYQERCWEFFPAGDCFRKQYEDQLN

Substance: H-dMeAla-Hhp-dMeAla-Hhp-dMeAla-Ahp-dMeAla-Ahp-OH?
- ring closure, yield after HPLC [1, 2]: 7%

Substance: (3R,6S,9R,12S,15R,18S,21R,24S)-1,3,4,7,9,10,13,15,16,19,21,22-dodecamethyl-6,12,18,24-tetrapentyl-1,4,7,10,13,16,19,22-octaazacyclotetracosan-2,5,8,11,14,17,20,23-octaone
- ring closure, yield after HPLC ([1]; PyBOP/DIPEA, DMF): 8%

Substance: H-dMeAla-MeAhp-dMeAla-Hhp-dMeAla-Hhp-dMeAla-Hhp-OH
- ring closure, yield after HPLC [1, 2]: 5%

Substance: (3S,6R,9S,12R,15S,18R,21S,24R)-1,6,7,12,13,18,19,24-Octamethyl-3,9,15,21-tetrapentyl-1,4,7,10,13,16,19,22-octaazacyclotetracosan-2,5,8,11,14,17,20,23-octaone [2.5]
- Normalized Calcium Leak (RyR2): 1.09 ± 0.46
- Calcium spark Amplitude (normalized to vehicle) (RyR2): 1.17 ± 0.34
- Calcium spark Leak (normalized to vehicle) (RyR2): 1.09 ± 0.46
- Calcium spark Mass (normalized to vehicle) (RyR2): 1.06 ± 0.35
- Calcium spark Frequency (normalized to vehicle) (RyR2): 1.04 ± 0.20

Substance: (3R,6S,9R,12S,15R,18S,21R,24S)-3,4,9,10,13,15,16,19,21,22-decamethyl-6,12,18,24-tetrapentyl-1,7-dioxa-4,10,13,16,19,22-hexaazacyclotetracosan-2,5,8,11,14,17,20,23-octaone
- ring closure, yield after HPLC ([1]; PyBOP/DIPEA, DMF, 2.9 mM): 4%

Substance: (3R,6S,9R,12S,15R,18S,21R,24S)-3,4,9,10,15,16,21,22-octamethyl-6,12,18,24-tetrapentyl-1,13-dioxa-4,7,10,16,19,22-hexaazacyclotetracosan-2,5,8,11,14,17,20,23-octaone [2.3]
- Normalized Calcium Leak (RyR2): 1.03 ± 0.53
- Calcium spark Amplitude (normalized to vehicle) (RyR2): 0.92 ± 0.19
- Calcium spark Leak (normalized to vehicle) (RyR2): 1.03 ± 0.53
- Calcium spark Mass (normalized to vehicle) (RyR2): 1.02 ± 0.43
- Calcium spark Frequency (normalized to vehicle) (RyR2): 1.01 ± 0.20

Substance: (3R,6S,9R,12S,15R,18S,21R,24S)-3,4,9,10,15,16,19,21,22-nonamethyl-6,12,18,24-tetrapentyl-1,7,13-trioxa-4,10,16,19,22-pentaazacyclotetracosan-2,5,8,11,14,17,20,23-octaone [3.1]
- Normalized Calcium Leak (RyR2): 0.75 ± 0.63
- Calcium spark Amplitude (normalized to vehicle) (RyR2): 0.99 ± 0.20
- Calcium spark Leak (normalized to vehicle) (RyR2): 0.75 ± 0.63
- Calcium spark Mass (normalized to vehicle) (RyR2): 0.81 ± 0.55
- Calcium spark Frequency (normalized to vehicle) (RyR2): 0.79 ± 0.29
- Inhibition of RyR2-mediated calcium sparks (in words) (RyR2): partial inhibition, but less so than analog 2.1; also recorded: measurable activity

Substance: H-dMeAla-Hhp-dAla-Hhp-dAla-Hhp-dAla-Hhp-OH
- ring closure, yield after HPLC [1, 2]: 23%

Substance: H-dMeAla-MeAhp-dMeAla-MeAhp-dMeAla-Ahp-dMeAla-Ahp-OH?
- ring closure, yield after HPLC [1, 2]: 6%

Substance: H-dMeAla-MeAhp-dMeAla-MeAhp-dMeAla-MeAhp-dMeAla-Ahp-OH?
- ring closure, yield after HPLC [1, 2]: 5%

Substance: (3S,6R,9S,12R,15S,18R,21S,24R)-1,4,6,7,12,13,18,19,24-nonamethyl-3,9,15,21-tetrapentyl-1,4,7,10,13,16,19,22-octaazacyclotetracosan-2,5,8,11,14,17,20,23-octaone [5.5]
- Normalized Calcium Leak (RyR2): 1.14 ± 0.65

Substance: (3R,6S,9R,12S,15R,18S,21R,24S)-1,3,4,7,9,13,15,19,21-nonamethyl-6,12,18,24-tetrapentyl-1,4,7,10,13,16,19,22-octaazacyclotetracosan-2,5,8,11,14,17,20,23-octaone [4.5]
- Normalized Calcium Leak (RyR2): 1.43 ± 0.66

Substance: (3S,6R,9S,12R,15S,18R,21S,24R)-1,4,6,7,10,12,13,16,18,19,24-undecamethyl-3,9,15,21-tetrapentyl-1,4,7,10,13,16,19,22-octaazacyclotetracosan-2,5,8,11,14,17,20,23-octaone [5.2]
- Normalized Calcium Leak (RyR2): 1.08 ± 0.66

Substance: (3R,6S,9R,12S,15R,18S,21R,24S)-3,4,9,10,15,16,21,22-octamethyl-6,12,18,24-tetrapentyl-1,7,13-trioxa-4,10,16,19,22-pentaazacyclotetracosan-2,5,8,11,14,17,20,23-octaone [2.1]
- Normalized Calcium Leak (RyR2): 0.60 ± 0.65
- Calcium spark Amplitude (normalized to vehicle) (RyR2): 0.93 ± 0.31
- Calcium spark Leak (normalized to vehicle) (RyR2): 0.60 ± 0.65
- Calcium spark Mass (normalized to vehicle) (RyR2): 1.04 ± 0.64
- Calcium spark Frequency (normalized to vehicle) (RyR2): 0.51 ± 0.25
- Inhibition of RyR2-mediated calcium sparks (in words) (RyR2): modest potency; also recorded: measurable activity

Substance: (3S,6R,9S,12R,15S,18R,21S,24R)-1,4,6,7,10,12,13,18,19,24-decamethyl-3,9,15,21-tetrapentyl-1,4,7,10,13,16,19,22-octaazacyclotetracosan-2,5,8,11,14,17,20,23-octaone [5.3]
- Normalized Calcium Leak (RyR2): 1.23 ± 0.57

Substance: (3R,6S,9R,12S,15R,18S,21R,24S)-1,3,7,9,13,15,19,21-octamethyl-6,12,18,24-tetrapentyl-1,4,7,10,13,16,19,22-octaazacyclotetracosan-2,5,8,11,14,17,20,23-octaone [4.6]
- Normalized Calcium Leak (RyR2): 1.15 ± 0.71

Substance: (3R,6S,9R,12S,15R,18S,21R,24S)-3,4,7,9,10,15,16,19,21,22-decamethyl-6,12,18,24-tetrapentyl-1,13-dioxa-4,7,10,16,19,22-hexaazacyclotetracosan-2,5,8,11,14,17,20,23-octaone [3.3]
- Normalized Calcium Leak (RyR2): 0.93 ± 0.45
- Calcium spark Amplitude (normalized to vehicle) (RyR2): 1.00 ± 0.16
- Calcium spark Leak (normalized to vehicle) (RyR2): 0.93 ± 0.45
- Calcium spark Mass (normalized to vehicle) (RyR2): 0.96 ± 0.42
- Calcium spark Frequency (normalized to vehicle) (RyR2): 0.96 ± 0.26

Substance: (3R,6S,9R,12S,15R,18S,21R,24S)-1,3,4,7,9,10,13,15,16,19,21-undecamethyl-6,12,18,24-tetrapentyl-1,4,7,10,13,16,19,22-octaazacyclotetracosan-2,5,8,11,14,17,20,23-octaone [4.2]
- Normalized Calcium Leak (RyR2): 1.35 ± 1.14

Substance: (3S,6R,9S,12R,15S,18R,21S,24R)-1,4,6,7,12,13,16,18,19,24-decamethyl-3,9,15,21-tetrapentyl-1,4,7,10,13,16,19,22-octaazacyclotetracosan-2,5,8,11,14,17,20,23-octaone [5.4]
- Normalized Calcium Leak (RyR2): 1.14 ± 0.69

Substance: (3R,6S,9R,12S,15R,18S,21R,24S)-3,4,9,10,13,15,16,19,21,22-decamethyl-6,12,18,24-tetrapentyl-1,7-dioxa-4,10,13,16,19,22-hexaazacyclotetracosan-2,5,8,11,14,17,20,23-octaone [3.2]
- Normalized Calcium Leak (RyR2): 0.99 ± 0.53
- Calcium spark Amplitude (normalized to vehicle) (RyR2): 1.02 ± 0.20
- Calcium spark Leak (normalized to vehicle) (RyR2): 0.99 ± 0.53
- Calcium spark Mass (normalized to vehicle) (RyR2): 1.03 ± 0.50
- Calcium spark Frequency (normalized to vehicle) (RyR2): 0.97 ± 0.28

Substance: (3R,6S,9R,12S,15R,18S,21R,24S)-3,4,9,10,15,16,21,22-octamethyl-6,12,18,24-tetrapentyl-1-oxa-4,7,10,13,16,19,22-heptaazacyclotetracosan-2,5,8,11,14,17,20,23-octaone [2.4]
- Normalized Calcium Leak (RyR2): 0.97 ± 0.56
- Calcium spark Amplitude (normalized to vehicle) (RyR2): 1.08 ± 0.22
- Calcium spark Leak (normalized to vehicle) (RyR2): 0.97 ± 0.56
- Calcium spark Mass (normalized to vehicle) (RyR2): 0.98 ± 0.39
- Calcium spark Frequency (normalized to vehicle) (RyR2): 0.97 ± 0.17
